In PubChem BioAssay (NCI):
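These data come from cells grown in 96-well plates and exposed to compound for 48 hours at five concentrations. GI50 marks 50% less growth. TGI marks complete inhibition of growth.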

What was measured:
Experiment in all cases: inhibition of tumour cell growth, NCI panel, 48 h
HCC-2998 colon = system: HCC-2998 colon
SN12C renal = system: SN12C renal
RXF 393 renal = system: RXF 393 renal
UACC-257 melanoma = system: UACC-257 melanoma
SNB-19 CNS = system: SNB-19 CNS
SK-MEL-2 melanoma = system: SK-MEL-2 melanoma
A498 renal = system: A498 renal
SF-268 CNS = system: SF-268 CNS
HOP-62 NSCLC = system: HOP-62 NSCLC
NCI-H23 lung = system: NCI-H23 lung

SMILES | GI50 (HCC-2998 colon) [µM] | TGI (HCC-2998 colon) [µM] | GI50 (SN12C renal) [µM] | TGI (SN12C renal) [µM] | GI50 (RXF 393 renal) [µM] | TGI (RXF 393 renal) [µM] | GI50 (UACC-257 melanoma) [µM] | TGI (UACC-257 melanoma) [µM] | GI50 (SNB-19 CNS) [µM] | TGI (SNB-19 CNS) [µM] | GI50 (SK-MEL-2 melanoma) [µM] | TGI (SK-MEL-2 melanoma) [µM] | GI50 (A498 renal) [µM] | TGI (A498 renal) [µM] | GI50 (SF-268 CNS) [µM] | TGI (SF-268 CNS) [µM] | GI50 (HOP-62 NSCLC) [µM] | TGI (HOP-62 NSCLC) [µM] | GI50 (NCI-H23 lung) [µM] | TGI (NCI-H23 lung) [µM]
COc1ccc(C2CC(c3ccc4ccccc4c3)=NN2/C=C2\SC(=S)N(NC(=O)Cc3ccccc3Nc3c(Cl)cccc3Cl)C2=O)cc1 (stereo not given) | 1.39 | > 33.3 | 0.647 | > 48.9 | 0.282 | 1.16 | 3.86 | > 100 | 0.636 | > 46.8 | 2.95 | 18.8 | 0.302 | 0.99 | 0.809 | > 48.8 | 0.958 | > 49.9 | 0.793 | > 46.8
COc1ccc2nc(-c3ccc(Cl)cc3)cc(-c3nnc(SCC(=O)Nc4ccc(/C(C)=N\O)cc4)o3)c2c1 | 2.98 | 31.5 | 1.8 | 7.29 | 1.51 | 5.97 | 2.16 | 9.51 | 1.18 | 3.09 | 2.46 | 9.77 | 2.94 | 11 | 1.44 | 5.06 | 1.63 | 7 | 1.38 | 4.3
CS(=O)(=O)c1nccc(-c2c(-c3cccc(OCc4ccccc4)c3)nc3sccn23)n1 | 3.49 | 8.36 | 26.2 | > 100 | 15.3 | > 100 | 10.4 | 32.5 | > 43.8 | > 100 | > 100 | > 100 | 13.5 | > 89.9 | 19.1 | > 100 | > 80.9 | > 100 | 12.8 | > 100
COc1ccc(C(=O)OC2C(OC3C(O)COC(O[C@H]4C[C@H]5[C@@H]6CC=C7C[C@@H](O)CC[C@]7(C)[C@H]6CC[C@]5(C)[C@H]4[C@H](C)C(=O)CCC(C)C)C3OC(=O)C(C)C)OCC(O)C2O)cc1 (stereo not given in full) | 1.88 | 5.79 | 3.02 | 6.53 | < 0.00275 | 0.0158 | 0.0342 | 0.114 | 0.0336 | 3.97 | 0.0102 | 0.213 | 0.00395 | 0.0161 | 0.0195 | 3.33 | 0.0129 | 1.45 | 0.175 | 4.67
Oc1ccccc1/C=N/Nc1nc2ccccc2s1 | 5.37 | > 100 | 22.9 | > 100 | 13.7 | 39 | 8.87 | > 100 | 18.7 | > 100 | 8.74 | > 100 | 32.4 | > 100 | 3.8 | > 100 | 5.56 | > 100 | 23.3 | > 100
CCOC(=O)C1Nc2ccc([N+](=O)[O-])cc2[C@H]2OCC[C@@H]12 (stereo not given in full) | – | > 100 | – | > 100 | – | > 100 | – | > 100 | – | > 100 | – | > 100 | – | > 100 | – | > 100 | – | > 100 | – | > 100
Cc1cc(NCCCNc2ccnc3cc(Cl)ccc23)nc(Nc2ccc(C(=O)N3CCCCC3)cc2)n1 | 2.47 | 6.65 | 2.33 | 5.52 | 1.8 | 3.67 | 2.39 | 4.56 | 3.55 | 12.5 | 2.17 | 4.29 | 1.89 | 5.07 | 1.91 | 5.11 | 2.4 | 7.43 | 4.38 | 18.6
CC(C)COC(=O)N1N=NC2C3CC(=O)C(O3)C21 (stereo not given) | – | > 100 | – | > 100 | – | > 100 | – | > 100 | – | > 100 | – | > 100 | – | > 100 | – | > 100 | – | > 100 | – | > 100
C=C(c1ccccc1)[C@@]1(O)CCCC[C@H]1NC(c1ccccc1)c1ccccc1 | – | 26.1 | – | 29 | – | 22.7 | – | 25.1 | – | 36.7 | – | 27.4 | – | 27.7 | – | 27.6 | – | 31 | – | 28.7
